{"source": "patent US9388382B2", "about": "“Isolation of CD14 negative, CD45 positive and CD117 positive embryonic-like stem cells free of monocytes from human umbilical cord blood mononuclear cells” (THE BOARD OF TRUSTEES OF THE UNIVERSITY OF ILLINOIS, priority 2005, dated 2016)", "key": {"[1]": {"system": "ConA-stimulated lymphocytes of diabetic NOD mouse", "test": "ConA-stimulated autoimmune lymphocyte proliferation in coculture with differentiated embryonic-like stem cells", "assay_type": "cell-based", "details": "MGTA 10 μM, p<0.01", "procedure": "The specific carboxypeptidase inhibitor, carboxypeptidase inhibitor 2-mercaptomethyl-3-guanidinoethylthiopropanoic acid (MGTA, 10 μM) was applied to block carboxypeptidase. First, embryonic-like stem cells were differentiated by treatment with 10 nM Exendin4+10 ng/ml GM-CSF+25 mM glucose in 7% FBS-DMEM culture medium for 3-5 days. Second, autoimmune lymphocytes were isolated form the diabetic NOD mouse and then cocultured with these embryonic-like stem cells in the presence MGTA. The mouse lymphocyte mitogen concanavalin A (ConA) was used to stimulate the proliferation of lymphocytes."}, "[2]": {"system": "DNA methyltransferase (DNMT) activity of lymphocytes", "test": "DNA methyltransferase activity of lymphocytes regulated by CB-SC-derived NO", "assay_type": "cell-based", "details": "presence of iNOS inhibitor"}, "[3]": {"system": "PHA- or IL-2-stimulated allogeneic lymphocytes", "test": "Mitogen-stimulated lymphocyte proliferation in coculture with CB-SC (cell count)", "assay_type": "cell-based, human", "details": "200 μM/day L-NNA for 3 days, p<0.05", "procedure": "(§1) For PHA stimulation, lymphocyte suspensions (1×10^6 cells/ml) with or without PHA (10 μg/ml, Sigma) were seeded onto CB-SC cell cultures in regular culture medium. PHA-stimulated lymphocytes without CB-SC served as positive control; lymphocytes cultured only in regular medium served as negative control. Lymphocytes cocultured with CB-SC without PHA stimulation served as an additional negative control. For IL-2 stimulation, IL-2 (500 U/ml, eBioscience) was used. After 5-6 days, the suspended lymphocytes were collected for cell count and/or flow analysis.\nUnfixed CB-SC from same cord blood units served as controls. Additionally, we employed transwell culture system with 0.4 μm size (Sigma) to plant lymphocytes.\nIn experiments where N^ω-nitro-L-arginine (L-NNA, Sigma) was used to inhibit NO synthase, the drug (200 μM L-NNA) was added 1 h before PHA stimulation and then administrated 200 μM/day for additional two days. [Ziche, M., L. Morbidelli, E. Masini, S. Amerini, H. J. Granger, C. A. Maggi, P. Geppetti, and F. Ledda. 1994. Nitric oxide mediates angiogenesis in vivo and endothelial cell growth and migration in vitro promoted by substance P. J Clin Invest. 94:2036-2044]."}, "[4]": {"system": "human peripheral blood lymphocyte subsets", "test": "Coculture of CB-SC with lymphocytes, flow analysis of T cell subsets", "assay_type": "cell-based", "details": "PHA stimulation without CB-SC, p<0.05", "from_the_text": "CB-SC adhere very tightly to the culture dishes and display large rounded morphology, it is easy to distinguish between CB-SC and lymphocytes. CB-SC growing at 80% confluence were used for coculture with allogeneic lymphocytes. Allogeneic lymphocytes were collected from buffy coats of healthy donors (Life-Source Blood Services, Glenview, Ill.) after Ficoll-Hypaque separation followed by removing all attached cells and then cocultured with CB-SC at the ratio (1:10) [Zhao, Y., H. Wang, and T. Mazzone. 2006. Identification of stem cells from human umbilical cord blood with embryonic and hematopoietic characteristics. Exp Cell Res. 2006, 312: 2454-2464. DOI: 10.1016/j.yexcr.2006.04.008. April 26; (Epub ahead of print)] of CB-SC.\nas §1, with “After 5-6 days, the suspended lymphocytes were collected for cell count and/or flow analysis.” left out\nFlow analysis was preformed as previously described [Zhao, Y., H. Wang, and T. Mazzone. […] After staining, cells were analyzed using a CyAn ADP (DakoCytomation). […]"}, "[5]": {"system": "intracytoplasmic IL-10 in allogeneic lymphocytes", "test": "Flow analysis of intracellular IL-10 production", "assay_type": "cell-based, human", "details": "PHA-stimulated lymphocytes without CB-SC", "procedure": "Allogeneic lymphocytes were cocultured with CB-SC at ratio 1:10 of CB-SC: lymphocytes, in the presence or absence of mitogen PHA. After coculture for 5-6 days, cells were permeabalized and evaluated for intracytoplasmic IL-10 level by flow cytometry. Isotype-matched mouse IgG1κ antibody served as negative control. Data represent one of at least three experiments with the similar results;\nas §1\nFlow analysis was preformed as previously described [Zhao, Y., H. Wang, and T. Mazzone. 2006. Identification of stem cells from human umbilical cord blood with embryonic and hematopoietic characteristics. Exp Cell Res. 2006, 312: 2454-2464. DOI: 10.1016/j.yexcr.2006.04.008. April 26; (Epub ahead of print)]. […] After staining, cells were analyzed using a CyAn ADP (DakoCytomation)."}}}
{"compound": "2-mercaptomethyl-3-guanidinoethylthiopropanoic acid [MGTA]", "values": [{"measurement": "reversal of stem-cell inhibition of ConA-stimulated lymphocyte proliferation", "setting": "[1]", "result": "completely revert their inhibition"}]}
{"compound": "CC(=N)NCc1cccc(CN)c1", "note": "[1400 W]", "values": [{"measurement": "blocking of regulation of lymphocyte DNMT activity by CB-SC-derived NO", "setting": "[2]", "result": "significantly blocked"}]}
{"compound": "NC(=NCCC[C@H](N)C(=O)O)N[N+](=O)[O-]", "note": "[L-NNA, N-omega-nitro-L-arginine]", "values": [{"measurement": "lymphocyte cell number in presence vs absence of L-NNA", "setting": "[3]", "result": "about 4 fold"}]}
{"compound": "phytohaemagglutinin [PHA]", "values": [{"measurement": "increase of CD8^+ and decrease of CD4^+ T cell percentage vs lymphocytes alone", "setting": "[4]", "result": "more than 2 fold"}, {"measurement": "IL-10-positive cells", "setting": "[5]", "result": 80, "unit": "%"}]}
